This is an account of results in US8410105B2, “Pyridazinyl amine derivatives, the use thereof in the preparation of picorna virus inhibitors” (Institute of Pharmacology and Toxicology Academy of …, priority 2005, dated 2013).

Experiment [1] relates to Rhinovirus-3(HRV-3). Description: Preventive administration: drug pre-mixed with virus, protection of HeLa cells from CPE. Type of experiment: cell-based. To be noted: drug 100 ng/ml, virus about 100 TCID50, 33° C., three days, FIG. 1. As to the method:
(§1) HeLa cells (self-preserved in the laboratory)
(§2) Rhinovirus-3(HRV-3) (ATCC: VR-1113)
Principle: the drug and the virus were pre-mixed and incubated to block the procedure of viral uncoating and invasion into cells.
Methods: the drug at a concentration of 100 ng/ml was placed into a 12-well plate, then viral dose at TCID50 value of about 100 was added, after 0.5 h, 500,000 cells were added into each well, and incubated at 33° C. After three days, when the control group presented 100% cytopathic effect (CPE), the effects of the drug for preventing cells from being phagocytized were observed, and expressed as cell protection rate (%).

The subject of experiment [2] is Rhinovirus-3(HRV-3). Description: Therapeutic administration: drug added after viral infection of adherent HeLa cells, protection from CPE. Type of experiment: cell-based. To be noted: drug 100 ng/ml added 0.5 h after virus (about 100 TCID50), 33° C., three days, FIG. 2. As to the method:
as §1, §2
Method: 500,000 cells were added into each well, incubated at 33° C. overnight for adherence, then viral dose at TCID50 value of about 100 was added, the culture medium was removed by absorption after 0.5 h, the drug was added into a 12-well plate at a concentration of 100 ng/ml, the total volume of the reaction system was 2 ml. After three days, when the virus control group presented 100% cytophagocytesis (CPE), the effects of the drug for preventing cells from being phagocytized were observed.

Another experiment concerns rhinovirus. The experiment can be described thus: Ex vivo anti-rhinovirus screening: ACh-induced tension of rabbit tracheal rings exposed to rhinovirus. To be noted: for Tension, average: drug 100 μg/ml plus rhinovirus, rabbit tracheal rings.

Regarding “4-{2-[4-(3,6-dichloropyridazin-4-yl)-piperazin]-1-yl)-ethoxy]-benzoic acid isopropyl ester [Example 13]”, the “effects of the drug for preventing cells from being phagocytized, cell protection rate” value (“effects of the drug … cell protection rate” below) with Rhinovirus-3(HRV-3) [1] is recorded as “better effects”.

With `Cc1cccc(C)c1OCCN1CCN(c2cc(Cl)nnc2Cl)CC1` [Example 4, 3,6-dichloro-4-{4-[2-(2,6-dimethyl-phenoxyethyl)]-piperazin-1-yl}pyridazine], the “effects of the drug … cell protection rate” value in the experiment on Rhinovirus-3(HRV-3) [1] is on record as “better effects”.

In the case of `CCOC(=O)c1ccc(OCCN2CCN(c3cc(Cl)nnc3Cl)CC2)nc1` [Example 31, 6-{2-[4-(3,6-dichloro-pyridazin-4-yl)-piperazin-1-yl]-ethoxy}-nicotinic acid ethyl ester], the “effects of the drug … cell protection rate” value with Rhinovirus-3(HRV-3) [1] is given as “better effects”. The “effects of the drug for preventing cells from being phagocytized” value in the experiment with Rhinovirus-3(HRV-3) [2] is reported as “better effects”. Also, the “Tension, average” value in the experiment on rhinovirus (Ach concentration (log M) −3) turned out to be 1.95 g; with rhinovirus (Ach concentration (log M) −3.7), 1.86 g; in the experiment on rhinovirus (Ach concentration (log M) −4), 1.72 g; in the experiment on rhinovirus (Ach concentration (log M) −4.3), 1.54 g; in the experiment on rhinovirus (Ach concentration (log M) −4.7), 1.30 g; in the experiment on rhinovirus (Ach concentration (log M) −5), 1.00 g. Further, the “Tension, average” value with rhinovirus (Ach concentration (log M) −5.3) turned out to be 0.73 g; in the experiment on rhinovirus (Ach concentration (log M) −5.7), 0.35 g; in the experiment on rhinovirus (Ach concentration (log M) −6) it was 0.11 g; with rhinovirus (Ach concentration (log M) −7), 0.00 g. In addition, the “effect on the rhinovirus-caused excessive increase of Ach-induced tracheal smooth muscular tension” value with rhinovirus (drug 100 μg/ml, FIG. 3) is on record as “obviously inhibit the excessive increase of Ach-induced tracheal smooth muscular tension caused by rhinovirus”.

For the compound `COC(=O)c1ccc(OCCN2CCN(c3cc(Cl)nnc3Cl)CC2)nc1` [Example 32, 6-{2-[4-(3,6-dichloropyridazin-4-yl)piperazin-1-yl]-ethoxy}-nicotinic acid methyl ester], in the experiment on Rhinovirus-3(HRV-3) [1], the “effects of the drug … cell protection rate” value was “better effects”.
